Experiment [1] has as its system MESOGENIN1::eGFP reporter human embryonic stem cell (hESC) line. As to the kind of experiment: MESOGENIN1::eGFP reporter hESC line, pre-somite mesoderm induction (day 4). The experiment is classed as cell-based. The text has this: The present invention was created through a number of discoveries. First, to harness the potential of hPSCs, a protocol to direct hPSCs into the skeletal muscle lineage was developed. As the somite is an intermediate stage between hPSCs and myogenic progenitor cells (Bentzinger et al, 2012; Dequeant and Pourquie, 2008) (FIG. 6A), a MESOGENIN1::eGFP reporter human embryonic stem cell (hESC) line was generated with the CRISPR/Cas9 system (Mali et al, 2013) (FIG. 6B-6D), because MESOGENIN1 is a genetic marker for the pre-somite mesoderm fate (Fior et al., 2012). […] For myogenic differentiation, hESCs/hiPSCs were rendered to single cells using Accutase® solution, and plated on gelatin for 10 minutes to remove MEFs. Non-adherent cells were collected and plated on Geltrex™ treated dishes, at a density of 1.5×10^5 cells per well of a 24-well plate, in the presence of MEF-conditioned N2 media containing 10 ng/ml of FGF-2 and 10 μM of Y-27632 (Cayman Chemical Co.) (day 0). The N2 medium, described in detail, contains DMEM/F12 powder, glucose, sodium bicarbonate, insulin, putrescine, progesterone, sodium selenite, and transferrin. From the next day (day 1), media was changed at every other day. BIO (30 nM-250 nM), lithium chloride (20 μM-20 mM), Kenpallone (1 μM-10 μM), SB 216763 (1 μM-10 μM), WNT-1 (10 ng/ml-100 ng/ml), WNT-3A (10 ng/ml-100 ng/ml), WNT-7A (10 ng/ml-100 ng/ml), SBE13 hydrochloride (0.1 nM-10 μM), and OTSSP167 hydrochloride (0.1 nM-10 nM) were tested during day 1 to day 4, as well as during day 4 to day 8. Final concentrations of CHIR99021 and DAPT treatment are 3 μM and 10 μM, respectively.

Experiment [2] deals with canonical WNT signaling pathway. The experiment in a line: β-catenin translocation into the nucleus (canonical WNT signaling). Format: cell-based, human. The text has this:
The present invention was created through a number of discoveries. First, to harness the potential of hPSCs, a protocol to direct hPSCs into the skeletal muscle lineage was developed. As the somite is an intermediate stage between hPSCs and myogenic progenitor cells (Bentzinger et al, 2012; Dequeant and Pourquie, 2008) (FIG. 6A), a MESOGENIN1::eGFP reporter human embryonic stem cell (hESC) line was generated with the CRISPR/Cas9 system (Mali et al, 2013) (FIG. 6B-6D), because MESOGENIN1 is a genetic marker for the pre-somite mesoderm fate (Fior et al., 2012).

For experiment [3], the system named is control hiPSC-derived myoblasts. The experiment in a line: Effect of DMD-myoblast conditioned media / BMP4 on control hiPSC-derived myoblasts. Format: cell-based, human. Conditions: BMP4 four concentrations, 7.5 μg/ml to 25 μg/ml; compared with inhibitive effect of DMD-myoblast CM. As to the method:
FIG. 10A-10D is related to FIG. 5 and illustrates the effect of BMP4 on myoblasts and its pharmacological rescue. (A) Increased level of BMP4 expression in DMD-myoblasts than control myoblasts. (B-C) Inhibitive effect of conditioned media (CM, harvested after 24 hr incubation) from DMD-myoblasts on fusion index (B), and MYOG, and MYOD1 expression (C) of control hiPSC-derived myoblasts. […] (D) The decreased fusion index in DMD-CM-treated myoblasts was rescued by ‘dual SMAD inhibition’ compounds. (*, P≤0.05; ***, P≤0.001; ****, P≤0.0001, One-way ANOVA followed by Newman-Keuls test). n=3-5. All values represent means and s.d.
To find pharmacological rescue of the in vitro phenotypes, aberrant BMP and TGFβ signaling indicated by increased nuclear localization of pSMAD proteins in DMD-myoblasts (FIG. 3C-3D) was studied. Increased levels of BMP4 in the conditioned media (CM) of DMD-myoblasts (FIG. 10A) was detected. […] The effect of CM of DMD-myoblasts was reproduced by treatment with BMP4 protein in the culture media, which was reversed by treatment with ‘dual-SMAD’ inhibition compounds (FIG. 10D) (LDN+SB: LDN193189 and SB431542).

Take `Cc1c[nH]c(-c2cnc(NCCNc3ccc(C#N)cn3)nc2-c2ccc(Cl)cc2Cl)n1.Cl` [CHIR99021]: in experiment [1] (brief treatment 4 days after day 0, read at day 4, final concentration 3 μM), the “expression of MESOGENIN1::eGFP (cells out of total cells in a dish)” value turned out to be 80.8±11.3%. Besides, in experiment [1] (brief treatment 4 days, read at day 4), the “expression of TBX6 (positive cells)” value is 67.4±10.4%. Besides, the “expression of PAX3” value in experiment [1] (brief treatment 4 days, read at day 4, dose-dependent manner) was “significantly increased expression”. For the same molecule, the “β-catenin translocation into the nucleus” value in experiment [2] is on record as “β-catenin translocation into the nucleus”.

B1: BMP4: BMP4 protein added to the culture media (protein, UniProt P12644 293-408, looked up)
Bone morphogenetic protein 4: SPKHHSQRARKKNKNCRRHSLYVDFSDVGWNDWIVAPPGYQAFYCHGDCPFPLADHLNSTNHAIVQTLVNSVNSSIPKACCVPTELSAISMLYLDEYDKVVLKNYQEMVVEGCGCR
Consider B1, for which, in experiment [3], the “MYOG and MYOD1 expression of control hiPSC-derived myoblasts” value was “recapitulated the effect of CM of DMD-myoblasts”; the “fusion index of control hiPSC-derived myoblasts” value is “recapitulated the effect of CM of DMD-myoblasts”.

Source of the values: US11318167B2, “Isolation of fusion-competent myoblasts and therapeutic applications thereof related to muscular dystrophy” (THE JOHNS HOPKINS UNIVERSITY, priority 2015, dated 2022).
